Experiments:
[1] = refractive index (Na D-line) (dimensionless); details: 298.15 K; 101.33 kPa; Liquid; Standard Abbe refractometry
[2] = Liquid, Ebulliometric method (Recirculating still)

Cc1ccccc1 [toluene]
Details	refractive index
[1]	1.4939

[2]
Details	vapor or sublimation pressure [kPa]
352.64 K	38.32
356.84 K	44.23
361.31 K	51.31
367.88 K	63.37
372.12 K	72.27
375.63 K	80.42
379.44 K	90.03
379.45 K	90.03

Cc1ccccc1C [1,2-dimethylbenzene]
Details	refractive index
[1]	1.5026

CCSCC [3-thiapentane]
Details	refractive index
[1]	1.44

[2]
Details	vapor or sublimation pressure [kPa]
333.82 K	35.84
338.63 K	42.73
344.7 K	52.89
350.02 K	63.3
353.56 K	71.09
358.41 K	83.03
361.02 K	90.03
361.03 K	90.03
365.05 K	101.92

CCCS [1-propanethiol]
Details	refractive index
[1]	1.4353

[2]
Details	vapor or sublimation pressure [kPa]
310.52 K	34.6
315.47 K	41.96
320.68 K	51.03
325.73 K	61.23
330.38 K	72.02
334.62 K	83.15
337.03 K	90.03
340.63 K	101.19

c1ccsc1 [thiophene]
Details	refractive index
[1]	1.5255

[2]
Details	vapor or sublimation pressure [kPa]
328.01 K	37.5
331.52 K	42.75
337.52 K	53.02
341.13 K	60.12
346.44 K	71.92
350.46 K	82.01
353.38 K	90.03
356.73 K	99.99

Source: the NIST ThermoML archive (doi:10.1021/je060093l)
